In brackets after ≈: the same amount, converted by molar mass.
Key:
Assay type in all cases: cell-based
Aspergillus brasiliensis = test: Minimum Inhibition Concentration (MIC) screen; details: strain ATTC 16404
Description: (§1) To test the compounds as antimicrobial agents, the compounds were screened for activity to inhibit bacteria, yeast and mold. The Minimum Inhibition Concentration (MIC) is determined as the lowest concentration activity to inhibit the microorganism.

Candida albicans = test: Minimum Inhibition Concentration (MIC) screen; details: strain ATTC 10231
Description: as §1

Escherichia coli [1] = test: Minimum Inhibition Concentration (MIC) screen; details: strain ATTC 10536
Description: as §1

Pseudomonas aeruginosa = test: Minimum Inhibition Concentration (MIC) screen; details: strain ATTC 15442
Description: as §1

Staphylococcus aureus [2] = test: Minimum Inhibition Concentration (MIC) screen; details: strain ATTC 6538
Description: as §1

[3] = system: Staphylococcus epidermidis; test: Minimum Inhibition Concentration (MIC) screen; details: strain ATTC 12228
Description: as §1

Escherichia coli [4] = test: Bactericidal activity in solution (Activity % Reduction); details: 2000 ppm in water at ambient temperature
Description: (§2) In a second assay, compounds of this invention were screened for activity to kill bacteria in solution over a short period of time. Bactericidal activity is expressed as Activity % Reduction. All samples were tested in water at ambient temperature and at a concentration of 2000 ppm.

Staphylococcus aureus [5] = test: as above; details: 2000 ppm in water at ambient temperature
Description: as §2

SMILES | MIC (Aspergillus brasiliensis) | MIC (Candida albicans) | MIC (Escherichia coli [1]) | MIC (Pseudomonas aeruginosa) | MIC (Staphylococcus aureus [2]) | MIC [3] | inhibition at 2000 ppm (Escherichia coli [4]; 5 min) | inhibition at 2000 ppm (Escherichia coli [4]; 1 hour) | inhibition at 2000 ppm (Staphylococcus aureus [5]; 5 min) | inhibition at 2000 ppm (Staphylococcus aureus [5]; 1 hour)
CCCCC1CC(C)=CC(O)C1 (stereo not shown) [3-Methyl-5-Butyl-2-Cyclohexenol, 3-methyl-5-butyl-2-cyclohexenol] | 250 µg/mL (≈ 1.49 mM) | 125 µg/mL (≈ 0.743 mM) | > 1000 µg/mL | > 1000 µg/mL | 125 µg/mL (≈ 0.743 mM) | 125 µg/mL (≈ 0.743 mM) | 34.7% | 88.5% | 28.4% | 39%
CCCCC1CC(=O)C=C(C)C1 (stereo not shown) [3-Methyl-5-Butyl-2-Cyclohexenone, 3-methyl-5-butyl-2-cyclohexenone] | 250 µg/mL (≈ 1.5 mM) | 500 µg/mL (≈ 3.01 mM) | 500 µg/mL (≈ 3.01 mM) | > 1000 µg/mL | 500 µg/mL (≈ 3.01 mM) | 1000 µg/mL (≈ 6.01 mM) | 83.8% | 100% | 33.9% | 33.2%
CCCCCCCC1CC(=O)C=C(C)C1 (stereo not shown) [3-Methyl-5-Heptyl-2-Cyclohexenone, 3-methyl-5-heptyl-2-cyclohexenone] | > 1000 µg/mL | > 1000 µg/mL | > 1000 µg/mL | > 1000 µg/mL | 15.6 µg/mL (≈ 0.0749 mM) | 31.2 µg/mL (≈ 0.15 mM) | 13.9% | 25% | 37.6% | 24.1%
CCCC1CC(=O)C=C(C)C1 (stereo not shown) [3-Methyl-5-Propyl-2-Cyclohexenone, 3-methyl-5-propyl-2-cyclohexenone] | 500 µg/mL (≈ 3.28 mM) | 1000 µg/mL (≈ 6.57 mM) | 1000 µg/mL (≈ 6.57 mM) | > 1000 µg/mL | 1000 µg/mL (≈ 6.57 mM) | > 1000 µg/mL | 69.5% | 99% | 29.2% | 33.9%
